Experimental data taken from patent US20230106032A1, “IMIDAZOTRIAZINES ACTING ON CANCER VIA INHIBITION OF CDK12” (Bayer Aktiengesellschaft, priority 2020, published 2023).
pIC50: −log10 of the molar value.

Assays:
[1] = molecular target: T1, CDK12/CycK (Homo sapiens, UniProt Q9NYV4); assay: CDK12/CycK high ATP kinase assay (TR-FRET, 2 mM ATP); type: biochemical; settings: read-out: CDK12/CyclinK, 2 mM ATP (high ATP), IC50-[mol/l] (median)
T1 construct: His-CDK12 (aa Q696-S1082); made in house; host or cells: Hi-5 insect cells (baculovirus co-infection with CAK1)
T1 sequence (Q9NYV4 with tags, fused parts or gaps): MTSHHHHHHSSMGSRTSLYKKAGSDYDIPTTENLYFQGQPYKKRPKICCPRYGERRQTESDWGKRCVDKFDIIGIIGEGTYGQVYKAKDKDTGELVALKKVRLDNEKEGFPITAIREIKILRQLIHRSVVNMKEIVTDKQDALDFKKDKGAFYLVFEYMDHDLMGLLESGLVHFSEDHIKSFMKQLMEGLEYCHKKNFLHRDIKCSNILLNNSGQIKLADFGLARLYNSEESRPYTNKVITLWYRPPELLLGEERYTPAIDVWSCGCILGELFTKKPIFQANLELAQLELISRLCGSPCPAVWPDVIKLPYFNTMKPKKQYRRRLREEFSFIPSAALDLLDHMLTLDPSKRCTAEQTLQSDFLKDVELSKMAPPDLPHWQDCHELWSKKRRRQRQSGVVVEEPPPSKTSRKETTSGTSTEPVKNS
T1 sequence (O75909 with tags, fused parts or gaps partner limits assumed): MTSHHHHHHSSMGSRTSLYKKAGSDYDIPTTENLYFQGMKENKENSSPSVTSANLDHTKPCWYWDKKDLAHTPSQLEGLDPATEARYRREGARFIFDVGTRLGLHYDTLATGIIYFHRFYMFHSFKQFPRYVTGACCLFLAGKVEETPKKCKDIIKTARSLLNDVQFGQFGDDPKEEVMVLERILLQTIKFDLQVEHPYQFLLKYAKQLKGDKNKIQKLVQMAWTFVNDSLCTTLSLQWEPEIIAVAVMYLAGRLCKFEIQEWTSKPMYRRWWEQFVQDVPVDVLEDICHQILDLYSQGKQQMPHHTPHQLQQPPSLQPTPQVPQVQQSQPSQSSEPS
Excerpt: In the context of the present invention, the term “IC50 CDK12 hATP” refers to the IC50 values obtained according to the assay described in this section (2.2) herein below, i.e. the IC50 values for the inhibition of CDK12 at high ATP.
CDK12/CycK-inhibitory activity of compounds of the present invention at 2 millimol/L adenosine-tri-phosphate (ATP) was quantified employing the TR-FRET (TR-FRET=Time Resolved Fluorescence Energy Transfer) based CDK12/CycK activity inhibition assay as described in the following paragraphs.
A complex of human recombinant CDK12 and human recombinant CycK (both N-terminally His-tagged, expression and purification as described above) was used as enzyme. As substrate for the kinase reaction biotinylated peptide biotin-Ahx-KFELLPTPPLSPSRRSGL (C-terminus in amid form) was used which can be purchased e.g. form the company Biosyntan (Berlin-Buch, Germany).
For the assay 50 nanoL of a 100 fold concentrated solution of the test compound in DMSO was pipetted into either a black low volume 384 well microtiter plate or a black 1536 well microtiter plate (both Greiner Bio-One, Frickenhausen, Germany), 2 microL of a solution of CDK12/CycK in aqueous assay buffer [25 millimol/L HEPES pH 7.5, 20 millimol/L MgCl2, 5 millimol/L ß-glycerophosphate, 2 millimol/L EGTA, 1.0 millimol/L dithiothreitol, 0.01% (v/v) Nonidet-P40 (Sigma), 0.01% (w/v) bovine serum albumin] were added and the mixture was incubated for 15 min at 22° C. to allow pre-binding of the test compounds to the enzyme before the start of the kinase reaction. Then the kinase reaction was started by the addition of 3 microL of a solution ATP (3.33 millimol/L=> final conc. in the 5 microL assay volume is 2 millimol/L) and substrate (1.67 micromol/L=> final conc. in the 5 microL assay volume is 1 micromol/L) in assay buffer and the resulting mixture was incubated for a reaction time of 60 min at 22° C. The concentration of CDK12/CycK was adjusted depending of the activity of the enzyme lot and was chosen appropriate to have the assay in the linear range, typical concentrations were about 0.75 nanomol/L. The reaction was stopped by the addition of 3 microL of a solution of TR-FRET detection reagents (125 nanomol/L streptavidine-XL665 [Cisbio Bioassays, Codolet, France] and 0.67 nanomol/L anti-Phospho-c-Myc (Ser 62) (E1J4K)-antibody from Cell Signalling [#13748] and 2 nanomol/L LANCE EU-W1024 labeled anti-rabbit IgG antibody [Perkin-Elmer, product no. 0083]) in an aqueous EDTA-solution (133 millimol/L EDTA, 0.27% (w/v) bovine serum albumin in 66.7 millimol/L HEPES pH 7.5).
The resulting mixture was incubated 1 h at 22° C. to allow the formation of complex between the phosphorylated biotinylated peptide and the detection reagents. Subsequently the amount of phosphorylated substrate was evaluated by measurement of the resonance energy transfer from the Eu-chelate to the streptavidine-XL. Therefore, the fluorescence emissions at 620 nm and 665 nm after excitation at 350 nm was measured in a TR-FRET reader, e.g. a Pherastar FS (BMG Labtechnologies, Offenburg, Germany) or a Viewlux (Perkin-Elmer). The ratio of the emissions at 665 nm and at […] was taken as the measure for the amount of phosphorylated substrate. The data were normalised (enzyme reaction without inhibitor=0% inhibition, all other assay components but no enzyme=100% inhibition).

[2] = molecular target: T2, CDK12 (Homo sapiens, UniProt Q9NYV4); assay: CDK12 nuclear protein level: immunofluorescence/high content analysis in CAL-120 cells; type: cell-based; settings: for DC50: CAL-120 cells, 24 h, nuclear CDK12 staining, read-out: CDK12 degradation IF DC50-[mol/l] (median); for (IC50 CDK12 high ATP) to (Degradation DC50 CDK12) ratio: IC50 CDK12 hATP (Table 2) divided by DC50 CDK12 IF (Table 8)
T2 construct: endogenous in cells; host or cells: CAL-120 human breast cancer cells (DSMZ ACC 459)
T2 sequence (Q9NYV4 whole entry): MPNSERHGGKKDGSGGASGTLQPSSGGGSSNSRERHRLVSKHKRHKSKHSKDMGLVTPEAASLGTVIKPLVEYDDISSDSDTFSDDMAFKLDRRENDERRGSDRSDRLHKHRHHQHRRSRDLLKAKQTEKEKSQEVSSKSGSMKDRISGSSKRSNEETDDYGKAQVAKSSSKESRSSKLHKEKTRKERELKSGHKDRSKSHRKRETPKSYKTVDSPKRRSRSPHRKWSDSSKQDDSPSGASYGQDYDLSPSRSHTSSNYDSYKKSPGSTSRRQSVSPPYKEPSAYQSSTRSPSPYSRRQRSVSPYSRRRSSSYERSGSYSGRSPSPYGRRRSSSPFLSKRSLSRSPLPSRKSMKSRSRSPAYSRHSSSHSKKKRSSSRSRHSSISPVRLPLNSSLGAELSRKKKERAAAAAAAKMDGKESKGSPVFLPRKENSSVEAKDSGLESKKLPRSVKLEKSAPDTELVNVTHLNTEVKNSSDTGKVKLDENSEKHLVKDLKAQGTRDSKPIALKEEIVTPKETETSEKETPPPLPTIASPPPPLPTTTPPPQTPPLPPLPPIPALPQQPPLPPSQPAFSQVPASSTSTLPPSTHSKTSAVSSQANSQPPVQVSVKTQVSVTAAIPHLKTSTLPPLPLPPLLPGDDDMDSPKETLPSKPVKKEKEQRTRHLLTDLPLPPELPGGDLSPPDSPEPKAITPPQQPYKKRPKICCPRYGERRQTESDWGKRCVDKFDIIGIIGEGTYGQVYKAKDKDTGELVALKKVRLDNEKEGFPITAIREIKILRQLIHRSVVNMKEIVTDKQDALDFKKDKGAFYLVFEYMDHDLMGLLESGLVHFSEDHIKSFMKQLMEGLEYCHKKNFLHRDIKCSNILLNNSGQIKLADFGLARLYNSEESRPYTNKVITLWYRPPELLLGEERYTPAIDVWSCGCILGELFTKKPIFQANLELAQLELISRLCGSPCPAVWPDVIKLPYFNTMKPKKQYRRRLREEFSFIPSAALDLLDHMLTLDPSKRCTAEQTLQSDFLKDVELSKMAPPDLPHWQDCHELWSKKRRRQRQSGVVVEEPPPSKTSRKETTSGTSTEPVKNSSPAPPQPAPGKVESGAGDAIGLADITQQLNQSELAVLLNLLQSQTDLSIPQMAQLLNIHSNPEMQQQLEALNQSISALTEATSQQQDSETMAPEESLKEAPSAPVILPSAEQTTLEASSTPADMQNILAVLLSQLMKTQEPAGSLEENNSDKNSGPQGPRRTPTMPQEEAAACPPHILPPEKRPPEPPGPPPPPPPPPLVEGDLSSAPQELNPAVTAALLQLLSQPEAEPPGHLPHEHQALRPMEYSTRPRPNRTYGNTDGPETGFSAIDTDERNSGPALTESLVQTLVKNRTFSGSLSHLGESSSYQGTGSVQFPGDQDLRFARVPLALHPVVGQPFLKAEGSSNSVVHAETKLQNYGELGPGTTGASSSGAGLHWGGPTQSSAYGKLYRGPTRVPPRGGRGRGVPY
T2 sequence (O75909 whole entry partner): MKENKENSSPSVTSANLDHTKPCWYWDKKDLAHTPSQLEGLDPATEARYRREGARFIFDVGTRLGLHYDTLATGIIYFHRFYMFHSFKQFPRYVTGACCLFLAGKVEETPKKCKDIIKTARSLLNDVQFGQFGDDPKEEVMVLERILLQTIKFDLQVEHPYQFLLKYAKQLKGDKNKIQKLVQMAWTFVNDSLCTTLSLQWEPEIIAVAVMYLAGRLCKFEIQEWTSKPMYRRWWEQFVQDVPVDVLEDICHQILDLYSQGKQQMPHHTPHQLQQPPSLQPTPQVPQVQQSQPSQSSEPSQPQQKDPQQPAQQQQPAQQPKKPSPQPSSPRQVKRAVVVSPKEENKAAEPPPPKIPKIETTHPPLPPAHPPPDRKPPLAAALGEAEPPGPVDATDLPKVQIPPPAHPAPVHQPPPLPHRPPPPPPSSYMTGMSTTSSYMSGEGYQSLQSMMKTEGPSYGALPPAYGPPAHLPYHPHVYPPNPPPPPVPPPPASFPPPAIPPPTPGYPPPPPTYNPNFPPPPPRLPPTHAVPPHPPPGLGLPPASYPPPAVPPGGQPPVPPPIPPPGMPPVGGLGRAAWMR
Method: In the context of the present invention, the term “DC50 CDK12” refers to the DC50 values obtained according to the assay described in this section (6) herein below, i.e. the DC50 values for the degradation of CDK12.
(§1) CAL-120 human breast cancer cells (DSMZ ACC 459) are seeded in 1536-well microtiter plates (800 cells per well) containing 50 nanoL of compounds in Dose-Response. Control wells received DMSO or Reference Example 1. Plates are then incubated for 24 h at 37° C. in an humidified incubator and fixed with 4% PFA for 10 min. Then immunofluorescence (IF) against CDK12 (CellSignalling CDK12 Antibody #11973, rabbit, 1:100 dilution) is performed using standard IF protocols. Cells are then stained with Hoechst 33342 (Life Technologies, H-1399, 0.1 microg/ml) and imaged on an automated confocal microscopy system (e.g. Perkin Elmer Opera Phenix). Nuclear and cytoplasmic intensity as well as the nuclear/cytoplasmic intensity ratio is determined by automated image analysis using custom generated scripts (MetaXpress). Data is then transferred to Genedata Screener software, normalized to DMSO and control and DC50 values (degrading concentration to achieve 50% reduction of nuclear CDK12 staining intensity relative to controls) are reported.

[3] = tested on: CYCLIN K; assay: CYCLIN K nuclear protein level: immunofluorescence/high content analysis in CAL-120 cells; type: cell-based, human; settings: 24 h, nuclear CCNK staining, read-out: CYCLIN K degradation IF, DC50-[mol/l] (median)
Method: In the context of the present invention, the term “DC50 Cyclin K” refers to the DC50 values obtained according to the assay described in this section (7) herein below, i.e. the DC50 values for the degradation of Cyclin K.
as §1, with “CYCLIN K (ThermoFisher Scientific CCNK” for “CDK12 (CellSignalling CDK12”, “#PA5-85020,” for “#11973,”, “1:200” for “1:100”, “CCNK” for “CDK12”

`Brc1cnc2c(NCc3nc4ccccc4[nH]3)nc(N3CCOCC3)nn12` [Example 1, N-[(1H-benzimidazol-2-yl)methyl]-7-bromo-2-(morpholin-4-yl)imidazo[2,1-f][1,2,4]triazin-4-amine] was tested, and the pIC50 [1] was 5.29, the DC50 [2] was 6.8 nM and the “(IC50 CDK12 high ATP) to (Degradation DC50 CDK12) ratio” value [2] was 751. The DC50 [3] was 0.876 nM.

In the case of `N#Cc1cnc2c(NCc3nc4ccccc4[nH]3)nc(N3CCOCC3)nn12` [Example 2, 4-{[(1H-benzimidazol-2-yl)methyl]amino}-2-(morpholin-4-yl)imidazo[2,1-f][1,2,4]triazine-7-carbonitrile], the pIC50 [1] was 5.16, the DC50 [2] was 4.83 nM and the “(IC50 CDK12 high ATP) to (Degradation DC50 CDK12) ratio” value [2] was 1444. The DC50 [3] was 3.58 nM.

In the case of `Fc1cccc(-c2cnc3c(NCc4nc5ccccc5[nH]4)nc(N4CCOCC4)nn23)c1` [Example 3, N-[(1H-benzimidazol-2-yl)methyl]-7-(3-fluorophenyl)-2-(morpholin-4-yl)imidazo[2,1-f][1,2,4]triazin-4-amine], the pIC50 [1] was under 4.70, the DC50 [2] was 36 nM and the “(IC50 CDK12 high ATP) to (Degradation DC50 CDK12) ratio” value [2] was over 556. For the same molecule, the DC50 [3] was 23.9 nM.

`C[C@@H]1CN(c2nc(NCc3nc4ccccc4[nH]3)c3ncc(Br)n3n2)C[C@H](C)O1` [Example 4, N-[(1H-benzimidazol-2-yl)methyl]-7-bromo-2-[rel-(2R,6S)-2,6-dimethylmorpholin-4-yl]imidazo[2,1-f][1,2,4]triazin-4-amine] was tested, and the pIC50 [1] was 6.00, the DC50 [2] was 13 nM and the “(IC50 CDK12 high ATP) to (Degradation DC50 CDK12) ratio” value [2] was 76. It also gave a DC50 [3] of 1.14 nM.

In the case of `C[C@@H]1CN(c2nc(NCc3nc4c(F)c(F)ccc4[nH]3)c3ncc(Br)n3n2)C[C@H](C)O1` [Example 5, 7-bromo-N-[(4,5-difluoro-1H-benzimidazol-2-yl)methyl]-2-[rel-(2R,6S)-2,6-dimethylmorpholin-4-yl]imidazo[2,1-f][1,2,4]triazin-4-amine], the pIC50 [1] was 6.86, the DC50 [2] was 2.07 nM and the “(IC50 CDK12 high ATP) to (Degradation DC50 CDK12) ratio” value [2] was 66. It also gave a DC50 [3] of 1.16 nM.

In the case of `CN1CCN(c2nc(NCc3nc4ccccc4[nH]3)c3ncc(Br)n3n2)CC1` [Example 6, N-[(1H-benzimidazol-2-yl)methyl]-7-bromo-2-(4-methylpiperazin-1-yl)imidazo[2,1-f][1,2,4]triazin-4-amine], the pIC50 [1] was under 4.73, the DC50 [2] was 3.84 nM and the “(IC50 CDK12 high ATP) to (Degradation DC50 CDK12) ratio” value [2] was over 4836. The DC50 [3] was 2.31 nM.

In the case of `Fc1ccc2[nH]c(CNc3nc(N4CCOCC4)nn4c(Br)cnc34)nc2c1F` [Example 7, 7-bromo-N-[(4,5-difluoro-1H-benzimidazol-2-yl)methyl]-2-(morpholin-4-yl)imidazo[2,1-f][1,2,4]triazin-4-amine], the pIC50 [1] was 5.90, the DC50 [2] was 0.992 nM and the “(IC50 CDK12 high ATP) to (Degradation DC50 CDK12) ratio” value [2] was 1272. It also gave a DC50 [3] of 0.201 nM.

`Brc1cnc2c(NCc3nc4ccccc4[nH]3)nc(N3CCNCC3)nn12` [Example 8, N-[(1H-benzimidazol-2-yl)methyl]-7-bromo-2-(piperazin-1-yl)imidazo[2,1-f][1,2,4]triazin-4-amine] was tested, and the pIC50 [1] was 5.25, the DC50 [2] was 0.527 nM and the “(IC50 CDK12 high ATP) to (Degradation DC50 CDK12) ratio” value [2] was 10707. It also gave a DC50 [3] of 1.28 nM.

For `C[C@@H]1CN(c2nc(NCc3nc4ccccc4[nH]3)c3ncc(Br)n3n2)C[C@H](C)N1` [Example 9, N-[(1H-benzimidazol-2-yl)methyl]-7-bromo-2-[rel-(3R,5S)-3,5-dimethylpiperazin-1-yl]imidazo[2,1-f][1,2,4]triazin-4-amine], the pIC50 [1] was 5.31, the DC50 [2] was 0.575 nM and the “(IC50 CDK12 high ATP) to (Degradation DC50 CDK12) ratio” value [2] was 8519. It also gave a DC50 [3] of 0.111 nM.

With `Fc1ccc2[nH]c(CNc3nc(N4CCNCC4)nn4c(Br)cnc34)nc2c1F` [Example 10, 7-bromo-N-[(4,5-difluoro-1H-benzimidazol-2-yl)methyl]-2-(piperazin-1-yl)imidazo[2,1-f][1,2,4]triazin-4-amine] the pIC50 [1] was 5.86, the DC50 [2] was 0.132 nM and the “(IC50 CDK12 high ATP) to (Degradation DC50 CDK12) ratio” value [2] was 10329. It also gave a DC50 [3] of 0.0632 nM.

For `C[C@@H]1CN(c2nc(NCc3nc4c(F)c(F)ccc4[nH]3)c3ncc(Br)n3n2)C[C@H](C)N1` [Example 11, 7-bromo-N-[(4,5-difluoro-1H-benzimidazol-2-yl)methyl]-2-[rel-(3R,5S)-3,5-dimethylpiperazin-1-yl]imidazo[2,1-f][1,2,4]triazin-4-amine], the pIC50 [1] was 6.24, the DC50 [2] was 0.111 nM and the “(IC50 CDK12 high ATP) to (Degradation DC50 CDK12) ratio” value [2] was 5221. It also gave a DC50 [3] of 0.0525 nM.

`Fc1cccc2[nH]c(CNc3nc(N4CCOCC4)nn4c(Br)cnc34)nc12` [Example 12, 7-bromo-N-[(4-fluoro-1H-benzimidazol-2-yl)methyl]-2-(morpholin-4-yl)imidazo[2,1-f][1,2,4]triazin-4-amine] was tested, and the pIC50 [1] was 5.33, the DC50 [2] was 4.35 nM and the “(IC50 CDK12 high ATP) to (Degradation DC50 CDK12) ratio” value [2] was 1084. For the same molecule, the DC50 [3] was 0.292 nM.

`COc1cccc2[nH]c(CNc3nc(N4CCOCC4)nn4c(Br)cnc34)nc12` [Example 13, 7-bromo-N-[(4-methoxy-1H-benzimidazol-2-yl)methyl]-2-(morpholin-4-yl)imidazo[2,1-f][1,2,4]triazin-4-amine] was tested, and the pIC50 [1] was 5.88, the DC50 [2] was 1.79 nM and the “(IC50 CDK12 high ATP) to (Degradation DC50 CDK12) ratio” value [2] was 742. For the same molecule, the DC50 [3] was 1.57 nM.

For `CN(CC(C)(C)O)c1nc(NCc2nc3ccccc3[nH]2)c2ncc(C(F)(F)F)n2n1` [Example 30, 1-[{4-[(1H-benzimidazol-2-ylmethyl)amino]-7-(trifluoromethyl)imidazo[2,1-f][1,2,4]triazin-2-yl}(methyl)amino]-2-methylpropan-2-ol], the pIC50 [1] was 6.79, the DC50 [2] was 13.8 nM and the “(IC50 CDK12 high ATP) to (Degradation DC50 CDK12) ratio” value [2] was 12.
